Source: patent US20230331690A1, “THC DERIVATIVES, ORAL DOSAGE FORMS COMPRISING SAME, USES THEREOF FOR TREATING DISEASES AND DISORDERS AND SYNTHESIS THEREOF” (BAR-ILAN UNIVERSITY, priority 2020, published 2023)
Values joined by “and” are separate entries in the source; they are usually repeats but may differ in a detail not shown here. Identical values can stand only once. Like-named read-outs stand apart in the source and are kept apart here.

Experiments:
[1] = Persistence over time, blood samples (Example 18); format: in vivo, mice; settings: label = analyte; for Average results, blood samples: 4 mg/kg administration
Experimental: (§1) Blood samples from each mouse were collected at each time point for the pharmacokinetics tests. For 6 h after administrating of all tested drugs, and after testing their WRL on the hot plate, half the mice (n=3) of each group were sacrificed, and the liver and brain of each animal were taken for pharmacokinetics tests. From the remaining mice, blood samples were acquired at 12 h after administration for pharmacokinetics tests. At 24 h after drug administration, and after checking the WRL again, second half of each group of mice were sacrificed, and the liver and brain of each animal were taken for pharmacokinetics tests.

[2] = Persistence over time, liver samples postmortem (Example 18); format: in vivo, mice; settings: for concentration at 6 h / concentration at 24 h: mouse, liver, oral, read-out: Average results for 3 mice (Table 13, liver); for concentration at 6 h: died at 6 h
Experimental: as §1
(§2) All the results of the brain and liver samples, which were taken postmortem 6 h or 24 h after administration (n=3) are summarized in Tables 12-13.

[3] = Persistence over time, brain samples postmortem (Example 18); format: in vivo, mice
Experimental: as §1, §2

mice = test: Hot plate assay, withdrawal reflex latency (WRL); format: in vivo; settings: for Hot plate Time: per animal
[4] = Body temperature by rectal thermometer (hypothermia)
[5] = Pharmacokinetics, liver samples (Example 17); format: in vivo, mice; settings: mouse, liver; for concentration at 24 h: ip; for concentration at 5 h: po
[6] = Pharmacokinetics, blood samples (Example 17); settings: mouse, blood, ip, Component in the blood, label = analyte
Experimental: The pharmacokinetics of 9-CD3-(8-D2)-THC compared to natural THC was evaluated using both intraperitoneal i.p. injection and an oral gavage administration for each material. The mice were divided into four groups containing 6 mice (24 mice total). For each group of mice, a blood sample was withdrawn at baseline (t=0), and half-hour intervals (t=0.5, 2 and 5 h) after administration of the drug. Three mice, half of each group, were euthanized with CO2 after 5 h and their organs (brain and liver) were collected. From the second half of each group, another blood sample was withdrawn 24 h after administration, and then these animals were euthanized and the brain and liver were collected for analysis.

SMILES: CCCCCc1cc(O)c2c(c1)OC(C)(C)[C@@H]1CCC(C)=C[C@@H]21 [THC, Δ-9-tetrahydrocannabinol]
- Average results, blood samples ([1]; Time 3 h): 2.78 (4/6) ng/mL
- Average results, blood samples ([1]; Time 6 h): 2.44 (5/5) ng/mL
- Average results, blood samples ([1]; Time 24 h (3 mice)): 0.25 (2/2) ng/mL
- concentration at 0.5 h ([1]; mouse, blood, oral, 4 mg/kg administration of THC or THC-d5, Time 0.5 h): 10.5 ng/mL
- concentration at 0.5 h ([1]; mouse, blood, oral, 8 mg/kg administration of THC or THC-d5, Time 0.5 h): 14.3 ng/mL
- concentration at 3 h ([1]; mouse, blood, oral, 8 mg/kg administration, Time 3 h): 6.53 ng/mL
- concentration at 6 h ([1]; mouse, blood, oral, 8 mg/kg administration, Time 6 h): 4.14 ng/mL
- concentration at 12 h ([1]; mouse, blood, oral, 8 mg/kg administration, Time 12 h (3 mice)): 0.81 ng/mL
- concentration at 24 h ([1]; mouse, blood, oral, 8 mg/kg administration, Time 24 h (3 mice)): 0.26 ng/mL
- Average results for 3 mice (Table 13, liver) ([2]; 2 mg/kg administered, died at 24 h, number in brackets = mice with a value): 0.74 (2/3) ng/g
- concentration at 6 h ([2]; 2 mg/kg administered): 9.18 ng/g
- concentration at 6 h ([2]; 4 mg/kg administered): 11.4 ng/g
- concentration at 24 h ([2]; 4 mg/kg administered, died at 24 h, number in brackets = mice with a value): 0.87 ng/g
- concentration at 6 h ([2]; 8 mg/kg administered): 11.1 ng/g
- concentration at 24 h ([2]; 8 mg/kg administered, died at 24 h, number in brackets = mice with a value): 3.52 ng/g
- presence in the brain ([3]; 24 h after administration, highest concentration of 8 mg/kg): absent
- concentration at 24 h ([3]; mouse, brain, oral, 4 mg/kg administered, died at 24 h, number in brackets = mice with a value, read-out: Average results for 3 mice - brain samples): 14.1 ng/g
- concentration at 6 h ([3]; mouse, brain, oral, 8 mg/kg administered, died at 6 h, number in brackets = mice with a value, read-out: Average results for 3 mice - brain samples): 16.9 ng/g
- Hot plate Avg. 6 mice (mice; 2 mg/Kg oral, t = 0.5 h): 7.38 s
- Hot plate Time (mice; 2 mg/Kg oral, t = 0.5 h): 5.7 s and 11.5 s and 8.9 s and 9.2 s and 3.2 s and 5.8 s
- Hot plate Avg. 6 mice (mice; 2 mg/Kg oral, t = 3 h): 9.77 s
- Hot plate Time (mice; 2 mg/Kg oral, t = 3 h): 9.5 s and 8.5 s and 18.0 s and 10.4 s and 5.3 s and 6.9 s
- Hot plate Avg. 6 mice (mice; 2 mg/Kg oral, t = 6 h): 9.77 s
- Hot plate Time (mice; 2 mg/Kg oral, t = 6 h): 13.5 s and 6.3 s and 12.5 s and 8.7 s and 6.6 s and 11.0 s
- Hot plate Avg. 3 mice (mice; 2 mg/Kg oral, t = 24 h): 6.53 s
- Hot plate Time (mice; 2 mg/Kg oral, t = 24 h): 7.8 s and 7.4 s and 4.4 s
- decrease in the WRL compared to baseline (mice; 2 mg/kg, 0.5 h): 1%
- change in average WRL compared to baseline (mice; 2 mg/kg, 3 h): +31%
- change in average WRL compared to baseline (mice; 2 mg/kg, 6 h): +31%
- Hot plate Avg. 6 mice (mice; 4 mg/Kg oral, t = 0.5 h): 12.48 s
- Hot plate Time (mice; 4 mg/Kg oral, t = 0.5 h): 11.3 sec. (2×) and 19.8 sec. and 6.3 sec. and 14.0 sec. and 12.2 sec.
- Hot plate Avg. 6 mice (mice; 4 mg/Kg oral, t = 3 h): 11.00 s
- Hot plate Time (mice; 4 mg/Kg oral, t = 3 h): 17.3 s and 8.0 s and 9.3 s and 6.9 s and 13.9 s and 10.6 s
- Hot plate Avg. 6 mice (mice; 4 mg/Kg oral, t = 6 h): 8.92 s
- Hot plate Time (mice; 4 mg/Kg oral, t = 6 h): 12.1 sec. and 2.4 sec. and 3.0 sec. and 14.0 sec. (2×) and 8.0 sec.
- Hot plate Avg. 3 mice (mice; 4 mg/Kg oral, t = 24 h): 10.43 s
- Hot plate Time (mice; 4 mg/Kg oral, t = 24 h): 13.7 s and 12.8 s and 4.8 s
- increase in the WRL compared to baseline (mice; 4 mg/kg, 0.5 h): 23%
- change in average WRL compared to baseline (mice; 4 mg/kg, 3 h): +8%
- change in average WRL compared to baseline (mice; 4 mg/kg, 6 h): −12%
- Hot plate Avg. 6 mice (mice; 8 mg/Kg oral, t = 0.5 h): 13.22 s
- Hot plate Time (mice; 8 mg/Kg oral, t = 0.5 h, cut-off 30 s): 15.2 s and 11.1 s and 14.2 s and 6.7 s and 19.6 s and 12.5 s
- Hot plate Avg. 6 mice (mice; 8 mg/Kg oral, t = 3 h): 12.45 s
- Hot plate Time (mice; 8 mg/Kg oral, t = 3 h, cut-off 30 s): 21.6 s and 9.0 s and 9.8 s and 9.5 s and 12.5 s and 12.3 s
- Hot plate Avg. 6 mice (mice; 8 mg/Kg oral, t = 6 h): 12.03 s
- Hot plate Time (mice; 8 mg/Kg oral, t = 6 h): 13.2 s and 9.2 s and 6.8 s and 16.7 s and 17.0 s and 9.3 s
- Hot plate Avg. 3 mice (mice; 8 mg/Kg oral, t = 24 h): 10.27 s
- Hot plate Time (mice; 8 mg/Kg oral, t = 24 h, cut-off 30 s): 8.1 s and 15.7 s and 7.0 s
- average increase in WRL compared to baseline (t=0) (mice; 8 mg/kg, 0.5 h): 67.3%
- change in average WRL compared to t=0 at baseline (mice; 8 mg/kg, 3 h): +57.5%
- change in average WRL compared to baseline (mice; 8 mg/kg, 6 h): +52%
- time of strongest effect on body temperature after drug administration ([4]; high concentration of 8 mg/kg oral): 0.5 h
- hypothermia effect (body temperature) ([4]; medium concentration of 4 mg/kg oral): very clear hypothermia effect
- Body temperature, Avg. change compared to t = 0, at t = 0.5 h ([4]; mice, avg. of 6 mice, 8 mg/kg (groups C+D), t = 0.5 h after administration): −2.1 °C
- concentration at 24 h ([5]; 24 h after i.p. administration, n=3, read-out: average liver concentration): 7.62 ng/g
- concentration at 24 h ([5]; 24 h after i.p. injection of THC or THC-d5, label = analyte, n=3, read-out: Component in the liver, Average): 7.62 ng/mL
- concentration at 24 h ([5]; 24 h after i.p. injection of THC or THC-d5, label = analyte, read-out: Component in the liver, mouse 1): 5.55 ng/mL
- concentration at 24 h ([5]; 24 h after i.p. injection of THC or THC-d5, label = analyte, read-out: Component in the liver, mouse 2): 8.46 ng/mL
- concentration at 24 h ([5]; 24 h after i.p. injection of THC or THC-d5, label = analyte, read-out: Component in the liver, mouse 3): 8.86 ng/mL
- concentration at 5 h ([5]; 5 h after oral gavage administration of THC or THC-d5, label = analyte, n=3, read-out: Component in the liver, Average): 3.77 ng/mL
- concentration at 5 h ([5]; 5 h after oral gavage administration of THC or THC-d5, label = analyte, read-out: Component in the liver, mouse 1): 1.41 ng/mL
- concentration at 5 h ([5]; 5 h after oral gavage administration of THC or THC-d5, label = analyte, read-out: Component in the liver, mouse 2): 4.94 ng/mL
- concentration at 5 h ([5]; 5 h after oral gavage administration of THC or THC-d5, label = analyte, read-out: Component in the liver, mouse 3): 4.97 ng/mL
- concentration at 5 h ([5]; 5 h after oral gavage administration, n=3, read-out: average liver concentration): 3.77 ng/g
- concentration at 0.5 h ([6]; Average, 0.5 h after i.p. injection of THC or THC-d5, n=6 (THC-d5 n=5)): 63.4 ng/mL
- concentration at 0.5 h ([6]; mouse 1, 0.5 h after i.p. injection of THC or THC-d5): 76.8 ng/mL
- concentration at 0.5 h ([6]; mouse 2, 0.5 h after i.p. injection of THC or THC-d5): 81.9 ng/mL
- concentration at 0.5 h ([6]; mouse 3, 0.5 h after i.p. injection of THC or THC-d5): 49.5 ng/mL
- concentration at 0.5 h ([6]; mouse 4, 0.5 h after i.p. injection of THC or THC-d5): 64.4 ng/mL
- concentration at 0.5 h ([6]; mouse 5, 0.5 h after i.p. injection of THC or THC-d5): 53.8 ng/mL
- concentration at 0.5 h ([6]; mouse 6, 0.5 h after i.p. injection of THC or THC-d5): 53.9 ng/mL
